Test results as given in publication PMC12155096 (International Journal of Molecular Sciences, 2025).
Read-outs that look alike come from different tables or passages of the source.

Experiments:
CYP3A4 = CYP3A4 (Homo sapiens, UniProt P08684)
human CYP1A2 [1] = biological target: T1, human CYP1A2 (Homo sapiens, UniProt P05177); test: biochemical
T1 sequence (P05177 1-516): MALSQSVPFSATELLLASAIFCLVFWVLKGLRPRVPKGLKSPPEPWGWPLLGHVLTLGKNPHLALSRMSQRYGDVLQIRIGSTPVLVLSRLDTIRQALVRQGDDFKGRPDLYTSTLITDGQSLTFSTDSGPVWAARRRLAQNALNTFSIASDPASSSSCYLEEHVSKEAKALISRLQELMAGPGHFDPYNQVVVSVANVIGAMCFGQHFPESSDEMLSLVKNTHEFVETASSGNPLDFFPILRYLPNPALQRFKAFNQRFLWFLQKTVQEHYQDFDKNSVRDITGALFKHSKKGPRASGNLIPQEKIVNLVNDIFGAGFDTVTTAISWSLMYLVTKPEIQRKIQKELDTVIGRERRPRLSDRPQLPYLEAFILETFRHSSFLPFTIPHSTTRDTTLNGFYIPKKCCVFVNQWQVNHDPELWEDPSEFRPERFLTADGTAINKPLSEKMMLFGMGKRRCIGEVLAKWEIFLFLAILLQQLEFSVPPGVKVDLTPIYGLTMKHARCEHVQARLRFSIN

human CYP2C19 [2] = biological target: T2, human CYP2C19 (Homo sapiens, UniProt P33261)
human CYP2D6 = human CYP2D6 (Homo sapiens, UniProt P10635)
human CYP2C9 [3] = biological target: T3, human CYP2C9 (Homo sapiens, UniProt P11712); test: biochemical
human CYP2C19 [4] = biological target: T2, human CYP2C19; test: biochemical
human CYP1A2 [5] = biological target: T1, human CYP1A2
human CYP2C9 [6] = biological target: T3, human CYP2C9
[7] = CYP1A2 AC50 (half-maximal activity concentration)
[8] = CYP2C9 AC50 (half-maximal activity concentration)

T3 sequence (P11712 whole entry): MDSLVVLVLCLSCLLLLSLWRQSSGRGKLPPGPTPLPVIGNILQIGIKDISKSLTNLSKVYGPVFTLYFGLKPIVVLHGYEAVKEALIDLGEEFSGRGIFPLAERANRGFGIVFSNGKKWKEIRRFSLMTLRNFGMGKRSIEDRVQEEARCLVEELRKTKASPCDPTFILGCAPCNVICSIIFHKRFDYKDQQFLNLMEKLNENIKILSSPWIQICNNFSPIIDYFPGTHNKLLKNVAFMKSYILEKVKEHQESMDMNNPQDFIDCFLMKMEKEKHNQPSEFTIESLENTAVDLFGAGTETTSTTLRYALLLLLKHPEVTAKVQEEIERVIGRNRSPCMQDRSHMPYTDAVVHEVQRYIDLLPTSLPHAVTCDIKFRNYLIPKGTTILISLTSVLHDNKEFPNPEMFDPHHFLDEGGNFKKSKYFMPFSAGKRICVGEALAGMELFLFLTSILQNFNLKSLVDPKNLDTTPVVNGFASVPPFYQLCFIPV
Sequence of CYP3A4 (P08684 whole entry): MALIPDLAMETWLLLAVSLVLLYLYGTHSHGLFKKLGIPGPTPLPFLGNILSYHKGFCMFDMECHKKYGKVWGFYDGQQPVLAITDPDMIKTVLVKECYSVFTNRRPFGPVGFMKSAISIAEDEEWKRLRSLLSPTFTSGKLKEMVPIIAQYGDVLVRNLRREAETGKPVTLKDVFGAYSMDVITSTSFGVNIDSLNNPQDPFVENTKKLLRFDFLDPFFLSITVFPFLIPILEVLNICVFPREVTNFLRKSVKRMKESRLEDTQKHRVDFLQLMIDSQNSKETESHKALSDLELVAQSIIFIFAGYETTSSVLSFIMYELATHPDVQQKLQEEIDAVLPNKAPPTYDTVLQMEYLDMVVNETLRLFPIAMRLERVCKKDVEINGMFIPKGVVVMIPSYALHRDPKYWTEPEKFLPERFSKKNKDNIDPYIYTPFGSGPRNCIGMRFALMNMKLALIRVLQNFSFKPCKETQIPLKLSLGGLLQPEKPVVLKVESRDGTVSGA
T2 sequence (P33261 whole entry): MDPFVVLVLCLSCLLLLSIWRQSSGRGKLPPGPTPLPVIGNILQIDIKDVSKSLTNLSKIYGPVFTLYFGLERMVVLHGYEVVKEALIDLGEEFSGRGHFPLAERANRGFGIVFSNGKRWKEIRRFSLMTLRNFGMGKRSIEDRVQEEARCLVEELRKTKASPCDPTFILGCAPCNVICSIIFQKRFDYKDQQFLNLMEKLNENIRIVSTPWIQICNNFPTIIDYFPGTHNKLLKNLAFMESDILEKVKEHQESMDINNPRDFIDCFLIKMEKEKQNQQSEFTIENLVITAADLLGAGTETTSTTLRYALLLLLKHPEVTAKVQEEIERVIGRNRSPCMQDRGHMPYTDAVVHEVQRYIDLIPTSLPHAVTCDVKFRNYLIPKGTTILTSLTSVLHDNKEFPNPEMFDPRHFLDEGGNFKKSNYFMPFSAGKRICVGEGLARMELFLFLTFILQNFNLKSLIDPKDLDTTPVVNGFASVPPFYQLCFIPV
Sequence of human CYP2D6 (P10635 whole entry): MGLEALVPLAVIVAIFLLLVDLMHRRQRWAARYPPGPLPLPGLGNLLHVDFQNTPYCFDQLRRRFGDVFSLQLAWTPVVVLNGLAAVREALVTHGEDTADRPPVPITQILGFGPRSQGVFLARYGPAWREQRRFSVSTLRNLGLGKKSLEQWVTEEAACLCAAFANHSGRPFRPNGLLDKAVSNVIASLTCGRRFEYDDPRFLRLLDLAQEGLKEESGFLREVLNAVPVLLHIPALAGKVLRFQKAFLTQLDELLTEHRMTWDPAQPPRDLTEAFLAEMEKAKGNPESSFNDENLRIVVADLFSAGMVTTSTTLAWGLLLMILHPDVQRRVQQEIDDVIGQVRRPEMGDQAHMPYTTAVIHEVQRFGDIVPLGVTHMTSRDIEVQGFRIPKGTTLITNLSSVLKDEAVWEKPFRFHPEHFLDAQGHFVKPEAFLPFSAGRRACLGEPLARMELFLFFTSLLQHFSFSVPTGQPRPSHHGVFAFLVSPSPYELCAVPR

Compound	CYP3A4 AC50 (half-maximal activity concentration) (CYP3A4)	CYP2C19 AC50 (half-maximal activity concentration) (human CYP2C19 [2])	CYP2D6 AC50 (half-maximal activity concentration) (human CYP2D6)	CYP2C9 AC50 (half-maximal activity concentration) (human CYP2C9 [6])	AC50 (CYP3A4) [µM]	AC50 (human CYP1A2 [5]) [µM]	AC50 (human CYP2C9 [6]) [µM]	other results
Oc1cc(Cl)c(Cl)cc1Cl [2,4,5-Trichlorophenol]	Inactive	Inconclusive inhibitor	Inactive					AC50 (human CYP1A2 [1]; [7]): 20.8 µM; AC50 (human CYP2C9 [3]; [8]): 22.4 µM
Oc1cc(Cl)ccc1Cl [2,5-Dichlorophenol]	Inactive	Inconclusive inhibitor	Inactive					AC50 (human CYP1A2 [1]; [7]): 33.9 µM; AC50 (human CYP2C9 [3]; [8]): 32.8 µM
CCOc1ccccc1C(N)=O [2-Ethoxybenzamide]	Inactive	Inactive	Inactive					AC50 (human CYP1A2 [1]): 16.8 ± 1.09 µM; AC50 (human CYP2C9 [3]): 31 ± 3.57 µM
COc1cccc(O)c1 [3-Methoxyphenol]	Inactive	Inactive	Inactive					AC50 (human CYP1A2 [1]): 49.3 µM; AC50 (human CYP2C9 [3]): 40.4 µM
CC(C)(C)c1cccc(O)c1 [3-tert-Butylphenol]	Inactive		Inactive	Inconclusive inhibitor				AC50 (human CYP2C19 [4]): 23.9 µM; CYP1A2 AC50 (half-maximal activity concentration) (human CYP1A2 [5]): Inconclusive inhibitor
Cc1cc(O)cc(C)c1Cl [4-Chloro-3,5-dimethylphenol]	Inactive	Inconclusive inhibitor	Inactive					AC50 (human CYP1A2 [1]; [7]): 14.2 µM; AC50 (human CYP2C9 [3]; [8]): 17.4 µM
Cc1cc(=O)oc2cc(O)ccc12 [4-Methylumbelliferone]	Inactive	Inactive	Inactive					AC50 (human CYP1A2 [1]; [7]): 28.6 µM; AC50 (human CYP2C9 [3]; [8]): 14.6 µM
Oc1ccc(Cc2ccc(O)cc2)cc1 [Bis(4-hydroxyphenyl)methane]	Inconclusive inhibitor	Inconclusive inhibitor	Inconclusive inhibitor					AC50 (human CYP1A2 [1]; [7]): 38.8 µM; AC50 (human CYP2C9 [3]; [8]): 11.8 µM
COC(=O)Nc1nc2ccc(C(=O)c3ccccc3)cc2[nH]1 [Mebendazole]	Inactive	Inactive	Inactive					AC50 (human CYP1A2 [1]; [7]): 14 µM; AC50 (human CYP2C9 [3]; [8]): 3.89 µM
COC(=O)c1ccc(O)cc1 [Methylparaben]	Inactive	Inactive	Inactive					AC50 (human CYP1A2 [1]; [7]): 20.8 µM; AC50 (human CYP2C9 [3]; [8]): 17.4 µM
COC(=O)Nc1nc2ccc(C(=O)c3cccs3)cc2[nH]1 [Nocodazole]	Inactive	Inconclusive inhibitor	Inconclusive inhibitor					AC50 (human CYP1A2 [1]; [7]): 15.2 µM; AC50 (human CYP2C9 [3]; [8]): 4.43 µM
CCC(=O)OCCOc1ccccc1 [Phenoxyethyl propionate]		Inconclusive inhibitor	Inactive	Inconclusive	47.1	55.5		
COC(=O)c1ccccc1C(=O)c1ccc(OCCN2CCCCC2)cc1.Cl [Pitofenone hydrochloride]		Inactive		Inactive	15.5			AC50 (human CYP2D6): 14.9 µM; CYP1A2 AC50 (half-maximal activity concentration) (human CYP1A2 [5]): Inactive
CCCOc1ccc2c(c1)CC[C@@H]1[C@@H]2CC[C@]2(C)[C@@H](OC)CC[C@@H]12 [Promestriene]		Inconclusive inhibitor		Inconclusive inhibitor	9.46	33.7		AC50 (human CYP2D6): 21.5 µM
CCNc1nc(Cl)nc(NCC)n1 [Simazine]	Inactive	Inactive	Inconclusive inhibitor					AC50 (human CYP1A2 [1]; [7]): 7.9 µM; AC50 (human CYP2C9 [3]; [8]): 5.09 µM
CCCCCCCCS(=O)(=O)[O-].[Na+] [Sodium 1-octanesulfonate]		Inactive	Inactive		33.1		44.1	CYP1A2 AC50 (half-maximal activity concentration) (human CYP1A2 [5]): Inactive

Compound	CYP3A4 AC50 (half-maximal activity concentration) (CYP3A4)	CYP2C19 AC50 (half-maximal activity concentration) (human CYP2C19 [2])	CYP2D6 AC50 (half-maximal activity concentration) (human CYP2D6)	CYP2C9 AC50 (half-maximal activity concentration) (human CYP2C9 [6])	AC50 (CYP3A4) [µM]	AC50 (human CYP1A2 [5]) [µM]	AC50 (human CYP2C9 [6]) [µM]	other results
CCCCCCCCc1ccc(S(=O)(=O)[O-])cc1.[Na+] [Sodium 4-octylbenzenesulfonate]		Inactive	Inactive		63.9		76.8	CYP1A2 AC50 (half-maximal activity concentration) (human CYP1A2 [5]): Inactive
C=Cc1ccc(S(=O)(=O)[O-])cc1.[Na+] [Sodium 4-vinylbenzenesulfonate]		Inactive	Inactive	Inactive	30.1	63.5		
CCOC(=O)c1ccc(NC(=O)CN2CCCCC2)cc1 [Sulcaine]		Inactive			26.4	22.2	37.8	AC50 (human CYP2D6): 16.8 µM
O=C(O)CC(C(=O)O)S(=O)(=O)O (stereo not shown) [Sulfosuccinic acid]				Inactive	43.2	33		AC50 (human CYP2C19 [2]): 11.9 µM; AC50 (human CYP2D6): 60.6 µM
CN(C)C1CSSSC1.O=C(O)C(=O)O [Thiocyclam oxalate]					33	61	28.3	AC50 (human CYP2C19 [2]): 38.5 µM; AC50 (human CYP2D6): 38.5 µM
Cc1ccc(C(C)OC(=O)[C@]2(C)CC[C@H](C(=O)O)C2(C)C)cc1.OCCNCCO (stereo partly shown) [Tocanfil]		Inactive	Inactive		14.4		36.1	CYP1A2 AC50 (half-maximal activity concentration) (human CYP1A2 [5]): Inactive
CCCCCCCCCCCC(=O)O.OCCN(CCO)CCO [Triethanolamine Laurate]			Inactive		89.2		115	AC50 (human CYP2C19 [2]): 135 µM; CYP1A2 AC50 (half-maximal activity concentration) (human CYP1A2 [5]): Inconclusive inhibitor
O=C(OCCOCCOCCOC(=O)c1ccccc1)c1ccccc1 [Triethylene glycol dibenzoate]	Inactive		Inconclusive inhibitor			17.8	2.75	AC50 (human CYP2C19 [2]): 20.8 µM
COC(=O)c1ccc(C(=O)OC)c(C(=O)OC)c1 [Trimethyl benzene-1,2,4-tricarboxylate]			Inactive	Inactive	49.9	7.19		AC50 (human CYP2C19 [2]): 32.3 µM
O=C(CCC1CCN(Cc2ccccc2)CC1)c1ccc2c(c1)NCCCC2.O=C(O)/C=C/C(=O)O [Zanapezil fumerate]		Inactive		Inconclusive inhibitor	3.4			AC50 (human CYP2D6): 7.12 µM; CYP1A2 AC50 (half-maximal activity concentration) (human CYP1A2 [5]): Inconclusive inhibitor
C[C@H](CSC(=O)c1ccccc1)C(=O)N1C[C@@H](Sc2ccccc2)C[C@H]1C(=O)O [Zofenopril]	Inactive		Inactive	Inactive				AC50 (human CYP2C19 [4]; CYP2C19 AC50 (half-maximal activity concentration)): 1.71 µM; CYP1A2 AC50 (half-maximal activity concentration) (human CYP1A2 [5]): Inactive
CCCCC/C(=C\c1ccccc1)CO [alpha-Amylcinnamyl alcohol]			Inconclusive inhibitor		13.7	3.72	36.6	AC50 (human CYP2C19 [2]): 1.66 µM
CC1(C)[C@H](C(=O)OCc2cccc(Oc3ccccc3)c2)[C@@H]1C=C(Cl)Cl [cis-Permethrin in cyclohexane]	Inactive	Inactive	Inactive	Inactive				CYP1A2 AC50 (half-maximal activity concentration) (human CYP1A2 [5]): Inactive
CC(C)(C)c1ccc(OP(=O)(Oc2ccccc2)Oc2ccccc2)cc1 [tert-Butylphenyl diphenyl phosphate]			Inactive		8.02	18	5.93	AC50 (human CYP2C19 [2]): 5.26 µM
Mancozeb			Inconclusive inhibitor		5.17	14.9	3.48	AC50 (human CYP2C19 [2]): 4.72 µM
Naphthenic acids			Inactive		84.8	59.4	36.4	AC50 (human CYP2C19 [2]): 46.4 µM
